Earlier results on one molecule are cited in patent publication US9534000B2, “Cytotoxic benzodiazepine derivatives and methods of preparation” (ImmunoGen, Inc., priority 2011, dated 2017).

For the data set the following is noted: Phase I clinical evaluation.

With `C=C1C[C@H]2C=Nc3cc(OCCCOc4cc5c(cc4OC)C(=O)N4CC(=C)C[C@H]4C=N5)c(OC)cc3C(=O)N2C1` [SJG-136], the “DNA damage in circulating lymphocytes” value was “noted at all doses”.
